According to PubChem BioAssay AID248 (DTP/NCI, 2004):
Where “and” joins values, the source holds several entries; their conditions need not be identical. Equal entries are not always repeated. Inconclusive results and toxic doses are left out. Rule as the data show it: active = T/C of 150% or more; inactive = T/C below 125%.

Test system: L1210 leukemia ip in BDF1 mice, survival T/C
Experiment: NCI In Vivo Anticancer Drug Screen. Data for tumor model L1210 Leukemia (intraperitoneal) in B6D2F1 (BDF1) mice
Details: endpoint: mean survival time, higher = longer survival
Outline: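 Antitumor effect is assessed in tumor-bearing animals. Survival in the compound arm is compared with a vehicle-dosed control arm and expressed as their quotient.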

[1] = dose: 100.0 mg/kg/injection, schedule: Q04DX002 (ip), vehicle: Klucel (hydroxypropylcellulose) (HPC)
[2] = dose: 200.0 mg/kg/injection, schedule: Q04DX002 (ip), vehicle: Klucel (hydroxypropylcellulose) (HPC)
[3] = dose: 100.0 mg/kg/injection, schedule: Q01DX001 (ip), vehicle: saline
[4] = dose: 200.0 mg/kg/injection, schedule: Q01DX001 (ip), vehicle: saline
[5] = dose: 400.0 mg/kg/injection, schedule: Q01DX001 (ip), vehicle: saline

Measured: T/C

CO[C@@H]1[C@@H](OC2OC(C)C(OC3CC(C)(O)C(OC(=O)CC(C)C)C(C)O3)C(N(C)C)C2O)[C@@H](CC=O)C[C@@H](C)C(=O)/C=C/C2O[C@H]2C[C@@H](C)OC(=O)C[C@H]1OC(C)=O (stereo partly drawn)
inactive: dose: 50.0 mg/kg/injection, schedule: Q01DX Z (ip), vehicle: other 103 % of control | dose: 100.0 mg/kg/injection, schedule: Q01DX001 (ip), vehicle: water 108 % of control | dose: 100.0 mg/kg/injection, schedule: Q01DX015 (ip), vehicle: water 102 % of control | dose: 100.0 mg/kg/injection, schedule: Q01DX Z (ip), vehicle: other 110 % of control | dose: 100.0 mg/kg/injection, schedule: Q#A X030 (ip), vehicle: water 108 % of control and 92 % of control | dose: 150.0 mg/kg/injection, schedule: Q01DX Z (ip), vehicle: other 105 % of control | dose: 150.0 mg/kg/injection, schedule: Q#A X030 (ip), vehicle: water 97 % of control | dose: 200.0 mg/kg/injection, schedule: Q01DX001 (ip), vehicle: water 106 % of control | dose: 200.0 mg/kg/injection, schedule: Q01DX015 (ip), vehicle: water 118 % of control | dose: 200.0 mg/kg/injection, schedule: Q01DX Z (ip), vehicle: methylcellulose (MC) 118 % of control | dose: 200.0 mg/kg/injection, schedule: Q01DX Z (ip), vehicle: other 105 % of control | dose: 200.0 mg/kg/injection, schedule: Q#A X030 (ip), vehicle: water 118 % of control | dose: 250.0 mg/kg/injection, schedule: Q01DX Z (ip), vehicle: methylcellulose (MC) 118 % of control | dose: 250.0 mg/kg/injection, schedule: Q01DX Z (ip), vehicle: other 115 % of control | dose: 300.0 mg/kg/injection, schedule: Q01DX015 (ip), vehicle: water 101 % of control and 118 % of control | dose: 300.0 mg/kg/injection, schedule: Q01DX Z (ip), vehicle: methylcellulose (MC) 116 % of control | dose: 350.0 mg/kg/injection, schedule: Q01DX Z (ip), vehicle: methylcellulose (MC) 116 % of control | dose: 400.0 mg/kg/injection, schedule: Q01DX001 (ip), vehicle: water 101 % of control | dose: 400.0 mg/kg/injection, schedule: Q01DX015 (ip), vehicle: water 87 % of control | dose: 600.0 mg/kg/injection, schedule: Q01DX001 (ip), vehicle: water 110 % of control

CN(C)c1ccc(C(=S)c2ccc(N(C)C)nc2)cn1
inactive: dose: 100.0 mg/kg/injection, schedule: Q01DX009 (ip), vehicle: Klucel (hydroxypropylcellulose) (HPC) 102 % of control | dose: 100.0 mg/kg/injection, schedule: Q04DX003 (ip), vehicle: Klucel (hydroxypropylcellulose) (HPC) 98 % of control | dose: 200.0 mg/kg/injection, schedule: Q01DX009 (ip), vehicle: Klucel (hydroxypropylcellulose) (HPC) 88 % of control | dose: 200.0 mg/kg/injection, schedule: Q04DX003 (ip), vehicle: Klucel (hydroxypropylcellulose) (HPC) 106 % of control | dose: 400.0 mg/kg/injection, schedule: Q01DX009 (ip), vehicle: Klucel (hydroxypropylcellulose) (HPC) 98 % of control | dose: 400.0 mg/kg/injection, schedule: Q04DX003 (ip), vehicle: Klucel (hydroxypropylcellulose) (HPC) 104 % of control

Nc1nc2c(ncn2-c2ccc(OCCCc3ccccc3)cc2)c(=O)[nH]1
inactive: dose: 1.56 mg/kg/injection, schedule: Q01DX001 (ip), vehicle: saline with Tween-80 97 % of control | dose: 3.13 mg/kg/injection, schedule: Q01DX001 (ip), vehicle: saline with Tween-80 92 % of control | dose: 6.25 mg/kg/injection, schedule: Q01DX001 (ip), vehicle: saline with Tween-80 94 % of control and 87 % of control | dose: 25.0 mg/kg/injection, schedule: Q01DX001 (ip), vehicle: saline with Tween-80 92 % of control and 91 % of control

O=C(O)c1cccc2nc3ccccc3nc12
inactive: [1] 100 % of control | [2] 102 % of control | dose: 400.0 mg/kg/injection, schedule: Q04DX002 (ip), vehicle: Klucel (hydroxypropylcellulose) (HPC) 96 % of control

CC[C@@]1(O)C[C@H](OC2CC(N(C)C)C(O)C(C)O2)c2c(O)c3c(c(O)c2[C@H]1OC1CC(N(C)C)C(O)C(C)O1)C(=O)c1cccc(O)c1C3=O (stereo partly drawn)
inactive: dose: 0.5 mg/kg/injection, schedule: Q01DX009 (ip), vehicle: saline 110 % of control

CCOC=Nc1cc[n+]([O-])nc1C
inactive: dose: 43.75 mg/kg/injection, schedule: Q04DX002 (ip), vehicle: saline 104 % of control | dose: 87.5 mg/kg/injection, schedule: Q04DX002 (ip), vehicle: saline 104 % of control | dose: 175.0 mg/kg/injection, schedule: Q04DX002 (ip), vehicle: saline 104 % of control

CCOc1ccccc1-c1nc2ccccc2s1
inactive: dose: 100.0 mg/kg/injection, schedule: Q04DX003 (ip), vehicle: DMSO 89 % of control | dose: 200.0 mg/kg/injection, schedule: Q04DX003 (ip), vehicle: DMSO 89 % of control | dose: 400.0 mg/kg/injection, schedule: Q04DX003 (ip), vehicle: DMSO 103 % of control

CCCCCCP(C)(=O)CCCCCC
inactive: dose: 100.0 mg/kg/injection, schedule: Q01DX001 (ip), vehicle: saline with Tween-80 99 % of control

Brc1ccc(SSc2ccc(Br)cc2)cc1
inactive: [3] 110 % of control | [4] 95 % of control | [5] 95 % of control

COc1ccccc1[N+](C)(C)C
inactive: [3] 102 % of control

O=C(O)C1C2C=CC(C2)C1C(=O)O.[Cu+2] (stereo not drawn)
inactive: dose: 3.12 mg/kg/injection, schedule: Q01DX009 (ip), vehicle: Klucel (hydroxypropylcellulose) (HPC) 95 % of control | dose: 6.25 mg/kg/injection, schedule: Q01DX009 (ip), vehicle: Klucel (hydroxypropylcellulose) (HPC) 96 % of control | dose: 12.5 mg/kg/injection, schedule: Q01DX009 (ip), vehicle: Klucel (hydroxypropylcellulose) (HPC) 101 % of control | dose: 12.5 mg/kg/injection, schedule: Q04DX003 (ip), vehicle: Klucel (hydroxypropylcellulose) (HPC) 103 % of control | dose: 18.0 mg/kg/injection, schedule: Q01DX009 (ip), vehicle: Klucel (hydroxypropylcellulose) (HPC) 101 % of control | dose: 28.0 mg/kg/injection, schedule: Q01DX009 (ip), vehicle: Klucel (hydroxypropylcellulose) (HPC) 93 % of control

CC(C)C(=O)OCC(=O)c1ccc(-c2ccccc2)cc1
inactive: [3] 100 % of control | [4] 94 % of control | [5] 111 % of control

N=C(N)c1ccc(N=NNc2ccc(C(=N)N)cc2)cc1 (tested in a mixture with another compound)
inactive: [3] 93 % of control | [4] 98 % of control

CCCCCCCCCCCCNC(=S)NCCCC
inactive: dose: 50.0 mg/kg/injection, schedule: Q04DX002 (ip), vehicle: Klucel (hydroxypropylcellulose) (HPC) 91 % of control | [1] 95 % of control | [2] 98 % of control

[Co]#[Sb]
inactive: dose: 75.0 mg/kg/injection, schedule: Q04DX003 (sc), vehicle: olive oil, sesame oil, peanut oil 96 % of control | dose: 150.0 mg/kg/injection, schedule: Q04DX003 (sc), vehicle: olive oil, sesame oil, peanut oil 95 % of control | dose: 300.0 mg/kg/injection, schedule: Q04DX003 (sc), vehicle: olive oil, sesame oil, peanut oil 105 % of control

CC(C)Cc1ccc(N=Nc2ccccc2)cc1
inactive: dose: 100.0 mg/kg/injection, schedule: Q04DX003 (ip), vehicle: saline with Tween-80 93 % of control | dose: 200.0 mg/kg/injection, schedule: Q04DX003 (ip), vehicle: saline with Tween-80 93 % of control | dose: 400.0 mg/kg/injection, schedule: Q04DX003 (ip), vehicle: saline with Tween-80 88 % of control

COC(=O)C1=C(NC(=O)Nc2ccccc2)OC(C)(C)C1c1ccc(Cl)cc1 (stereo not drawn)
inactive: [3] 93 % of control | [4] 89 % of control | [5] 89 % of control
